Results on seven compounds are retold here after article PMC7321108, “1-Hydroxyanthraquinones Containing Aryl Substituents as Potent and Selective Anticancer Agents” (Molecules, 2020).

SMILES strings stand for the structures. Where two headings read alike, the source gives them in different places.

For data set [1], the system named is T98G glioblastoma cells. Nature of the data set: MTT cytotoxicity assay, T98G. In kind it is cell-based. To be noted: Homo sapiens, 72 h incubation, mean ± SEM of three experiments, read-out: Cytotoxicity (GI50) against T98G. The method, then:
(§1) The cytotoxicity of the synthesized series of 4-substituted 5, 13–17, 22, 23, 2-substituted 25–30 and 2,4-disubstituted 1-hydroxy-9,10-anthraquinones 33–38, 40–45 was evaluated against a panel of seven different human cancer cell lines (glioblastoma cancer cells, human prostate cancer cells, T-cellular human leucosis, breast cancer cells) and also a normal cell line of hTERT-immortalized lung fibroblasts, using conventional MTT assay. Doxorubicin (DOX) is clinically used to treat cancer as drug in world and have a very wide antitumor spectrum. That we use them as positive control compounds. The cytotoxicity was determined by measuring the concentration inhibiting human tumor cell viability by 50% (GI50).
(§2) The human cancer cells of the glioblastoma (U-87MG, SNB-19, T98G), prostate cancer cell line (LNCAP, DU-145), the cells of T-cellular human leucosis (MT-4) and human breast cancer cells (MDA-MB-231) were used in this study. The cells were cultured in the RPMI-1640 medium that contained 10% embryonic calf serum, L-glutamine (2 mmol/L), gentamicin ([…]) and lincomycin (30 mkg/mL) in a CO2 incubator at 37 °C. The tested compounds were dissolved in DMSO and added to the cellular culture at the required concentrations. Three wells were used for each concentration. The cells which were incubated without the compounds were used as a control. Cells were placed on 96-well microliter plates and cultivated at 37 °C in 5% CO2/95% air for 72 h. The cell viability was assessed through an MTT [3-(4,5-dimethylthiazol-2-yl)-[…]-2H-tetrazolium bromide] conversion assay. A total of 1% MTT was added to each well. Four hours later, DMSO was added and mixed for 15 min. Optical density (D) of the samples was measured on a BioRad 680 multi-well spectrophotometer (USA) at the wavelength of 450 nm. The 50% cytotoxic dose GI50) of each compound (i.e., the compound concentration that causes the death of 50% of cells in a culture, or decreases the optical density twice as compared to the control wells) was calculated from the data obtained. Statistical processing of the results was performed using the Microsoft Excel-2007, […] 6.0 and GraphPad Prism 5.0 programs. The results are given as an average value ± a deviation from the average (mean ± standard error of the mean (SEM)). Reliability of differences (p) was estimated using the Student t test. The differences with p < 0.05 were considered as reliable. The experimental results are given as the data average values obtained from three independently conducted experiments.
A general note: Tetrazolium dyes change colour on reduction, which living cells bring about.

Data set [2] has as its system MDA-MB-231 breast cancer cells. Nature of the data set: MTT cytotoxicity assay, MDA-MB-231. The format is cell-based. The following applies: Homo sapiens, 72 h incubation, mean ± SEM of three experiments, read-out: Cytotoxicity (GI50) against MDA-MB-231. The protocol: as §1, §2
Data set [3] can be described thus: MTT cytotoxicity assay, normal hTERT-immortalized lung fibroblasts. The format is cell-based. The following applies: human, hTERT-immortalized lung fibroblasts (normal cell line), 72 h incubation, mean ± SEM of three experiments, read-out: Cytotoxicity (GI50) against hTERT Lung Fibroblasts. The protocol:
as §1, §2

In data set [4] the test system is SNB-19 glioblastoma cells. Nature of the data set: MTT cytotoxicity assay, SNB-19. The format is cell-based. To be noted: Homo sapiens, 72 h incubation, mean ± SEM of three experiments, read-out: Cytotoxicity (GI50) against SNB-19. The method, then:
as §1, §2

Data set [5] has as its system MT-4 cells of T-cellular human leucosis. Description: MTT cytotoxicity assay, MT-4. In kind it is cell-based. The following applies: MT4, 72 h incubation, mean ± SEM of three experiments, read-out: Cytotoxicity (GI50) against MT-4. The protocol:
as §1, §2

For data set [6], the system named is DU-145 prostate cancer cells. Description: MTT cytotoxicity assay, DU-145. To be noted: Homo sapiens, DU-145, 72 h, 72 h incubation, mean ± SEM of three experiments, read-out: Cytotoxicity (GI50) against DU-145. The format is cell-based, human. The protocol: as §1, §2
The test system of data set [7] is U-87MG glioblastoma cells. Nature of the data set: MTT cytotoxicity assay, U-87MG. In kind it is cell-based. To be noted: Homo sapiens, 72 h incubation, mean ± SEM of three experiments, read-out: Cytotoxicity (GI50) against U-87MG. The method, then:
as §1, §2

For data set [8], the system named is LNCAP prostate cancer cells. Nature of the data set: MTT cytotoxicity assay, LNCAP. The format is cell-based, human. To be noted: 72 h incubation, mean ± SEM of three experiments, read-out: Cytotoxicity (GI50) against LNCAP. The method, then:
as §1, §2

The term GI50 denotes the concentration giving 50% growth inhibition. Usually melting point stands for the temperature, or range, at which the solid turns liquid. As to `O=C1c2ccccc2C(=O)c2c1ccc(-c1cc(F)cc(F)c1)c2O` [Compound 29, 2-(3,5-Difluorophenyl)-1-hydroxyanthracene-9,10-dione], the melting point was 264.3 °C (dec.). Further, the GI50 in data set [1] stood at 29.6 ± 2.21 µM. In data set [2], the GI50 is 35.2 ± 1.88 µM. In addition, the concentration for 50% growth inhibition (GI50) at 72 h in [3] amounted to 28.1 ± 2.12 µM. For the same compound, the GI50 in [4] stood at 15.3 ± 0.71 µM. Moreover, the GI50 in data set [5] was found to be 36.6 ± 1.68 µM. Moreover, the GI50 in data set [6] was found to be 13.8 ± 1.05 µM. The GI50 in data set [7] was 34.1 ± 2.18 µM. Besides, the GI50 in data set [8] (Homo sapiens, LNCaP, 72 h) was 36.2 ± 2.05 µM.
In the case of `COc1ccc(-c2cc(Br)c(O)c3c2C(=O)c2ccccc2C3=O)cc1` [Compound 41, 2-Bromo-1-hydroxy-4-(4-methoxyphenyl)anthracene-9,10-dione], the melting point is 241.3 °C (dec.). Moreover, the GI50 in data set [1] stood at 29.7 ± 2.05 µM. In addition, in data set [2], the GI50 stood at 15.8 ± 0.82 µM. In [3], the GI50 at 72 h amounted to 17.2 ± 0.62 µM. Also, in data set [4], the GI50 worked out at 14.1 ± 3.15 µM. Moreover, the GI50 in data set [5] came out at 44.1 ± 3.23 µM. Besides, the GI50 in [6] was over 100 µM. Moreover, the 50% growth inhibitory concentration (GI50) in data set [7] came to 44.5 ± 1.56 µM. For the same compound, the GI50 in data set [8] (Homo sapiens, LNCaP, 72 h) turned out to be 41.1 ± 5.15 µM.
Turning to `COc1cc(-c2cc(Br)c3c(c2O)C(=O)c2ccccc2C3=O)cc(OC)c1OC` [Compound 42, 4-Bromo-1-hydroxy-2-(3,4,5-trimethoxyphenyl)anthracene-9,10-dione], the melting point was 217.4 °C (dec.). In addition, the GI50 in [1] is 11.5 ± 1.34 µM. In [2], the GI50 was determined as 21.1 ± 3.28 µM. The GI50 at 72 h in [3] came out at 18.2 ± 2.19 µM. In addition, the GI50 in [4] is 31.6 ± 2.16 µM. The GI50 in [5] was over 100 µM. In addition, the 50% growth inhibitory concentration (GI50) in data set [6] was 23.9 ± 4.28 µM. Moreover, the GI50 in data set [7] is over 100 µM. Moreover, the GI50 in [8] (Homo sapiens, LNCaP, 72 h) is 71.8 ± 9.76 µM.
In the case of `COc1cc(-c2ccc(O)c3c2C(=O)c2ccccc2C3=O)cc(OC)c1OC` [Compound 5, 1-Hydroxy-4-(3,4,5-trimethoxyphenyl)anthracene-9,10-dione], the melting point was 230.5 °C (dec.). In addition, the GI50 in data set [1] came out at 72.5 ± 3.21 µM. Besides, the GI50 in data set [2] stood at 28.6 ± 1.24 µM. Besides, in data set [3], the GI50 at 72 h is 28.6 ± 4.54 µM. Also, in data set [4], the GI50 was 6.7 ± 0.47 µM. Also, the GI50 in data set [5] was found to be 42 ± 4.14 µM. For the same compound, the GI50 in [6] was found to be 14.8 ± 0.52 µM. In data set [7], the 50% growth inhibitory concentration (GI50) was over 100 µM. In data set [8] (Homo sapiens, LNCaP, 72 h), the GI50 worked out at 21.1 ± 0.85 µM.
For the compound `O=C1c2ccccc2C(=O)c2c(O)c(-c3cc(F)cc(F)c3)cc(-c3cc(F)cc(F)c3)c21` [Compound 37, 2,4-Di-(3,5-difluorophenyl)-1-hydroxyanthracene-9,10-dione], the melting point is 263.3 °C (dec.). Besides, in [1], the GI50 amounted to 10.1 ± 0.78 µM. Further, the GI50 in data set [2] was 8.2 ± 0.96 µM. Moreover, in data set [3], the 50% growth inhibitory concentration (GI50) at 72 h amounted to 10.5 ± 1.98 µM. The GI50 in [4] is 9.1 ± 0.68 µM. Moreover, in data set [5], the GI50 came to 56.6 ± 1.28 µM. Besides, the GI50 in [6] worked out at 5.8 ± 0.38 µM. For the same compound, the GI50 in data set [7] amounted to 8.7 ± 0.89 µM. Further, in data set [8], the GI50 turned out to be 6.2 ± 0.43 µM. The GI50 in [8] (Homo sapiens, LNCaP, 72 h) lay within 6.2 to 7.2 µM.
Regarding `Cc1ccccc1-c1ccc2c(c1O)C(=O)c1ccccc1C2=O` [Compound 26, 1-Hydroxy-2-(o-tolyl)anthracene-9,10-dione], the melting point is 148.5 °C (dec.). For the same compound, in [1], the GI50 was over 100 µM. In addition, in data set [2], the GI50 was over 100 µM. Moreover, the GI50 at 72 h in data set [3] came to 87.5 ± 9.11 µM. In addition, in data set [4], the GI50 is over 100 µM. The concentration for 50% growth inhibition (GI50) in data set [5] was found to be 80 ± 5.21 µM. Further, in [6], the GI50 stood at 70.2 ± 1.47 µM. The GI50 in [7] is over 100 µM. Further, the GI50 in [8] (Homo sapiens, LNCaP, 72 h) was determined as 74 ± 3.74 µM.
In the case of `COc1cc(-c2cc(-c3ccc(Cl)cc3C(F)(F)F)c3c(c2O)C(=O)c2ccccc2C3=O)cc(OC)c1OC` [Compound 45, 4-(4-Chloro-2-(trifluoromethyl)phenyl)-1-hydroxy-2-(3,4,5-trimethoxyphenyl)-anthracene-9,10-dione], the melting point was 226.8 °C (dec.). The GI50 in data set [1] was 28.3 ± 3.25 µM. Moreover, the GI50 in [2] turned out to be 14.2 ± 1.42 µM. For the same compound, the GI50 at 72 h in data set [3] was found to be 20.5 ± 2.68 µM. For the same compound, the GI50 in data set [4] stood at 11.2 ± 1.49 µM. The GI50 in data set [5] came to 31.5 ± 1.52 µM. For the same compound, in data set [6], the GI50 turned out to be 22.6 ± 0.91 µM. The GI50 in data set [7] worked out at 18.2 ± 1.06 µM. The GI50 in data set [8] came out at 7.2 ± 0.74 µM. In addition, the concentration for 50% growth inhibition (GI50) in [8] (Homo sapiens, LNCaP, 72 h) fell in the range of 6.2 to 7.2 µM.
